Laboratory results taken from patent US11021481B2, “Substituted isoindolin-1-ones and 2,3-dihydro-1h-pyrrolo[3,4-c]pyridin-1-ones as HPK1 antagonists” (Nimbus Saturn, Inc., priority 2019, dated 2021).

Biological target: HPK1 (Homo sapiens (Human), UniProt Q92918)
Test: HPK1 biochemical enzyme assay (microfluidic mobility shift assay)
Settings: 1.5 nM HPK1, ATP 1 mM final, 30 min preincubation, 60 min at RT, Caliper EZ Reader; read-out: HPK1 1000UMATP caliper IC50
Summary of the method: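 Ten-point compound titrations (top 3 μM final) preincubated 30 min with HPK1 and substrate, then reaction started with 1 mM ATP and 1 μM substrate, 5 mM MgCl2. After 60 min at RT, reaction terminated and product measured by microfluidic mobility shift.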

HPK1, sequence (Q92918 whole entry): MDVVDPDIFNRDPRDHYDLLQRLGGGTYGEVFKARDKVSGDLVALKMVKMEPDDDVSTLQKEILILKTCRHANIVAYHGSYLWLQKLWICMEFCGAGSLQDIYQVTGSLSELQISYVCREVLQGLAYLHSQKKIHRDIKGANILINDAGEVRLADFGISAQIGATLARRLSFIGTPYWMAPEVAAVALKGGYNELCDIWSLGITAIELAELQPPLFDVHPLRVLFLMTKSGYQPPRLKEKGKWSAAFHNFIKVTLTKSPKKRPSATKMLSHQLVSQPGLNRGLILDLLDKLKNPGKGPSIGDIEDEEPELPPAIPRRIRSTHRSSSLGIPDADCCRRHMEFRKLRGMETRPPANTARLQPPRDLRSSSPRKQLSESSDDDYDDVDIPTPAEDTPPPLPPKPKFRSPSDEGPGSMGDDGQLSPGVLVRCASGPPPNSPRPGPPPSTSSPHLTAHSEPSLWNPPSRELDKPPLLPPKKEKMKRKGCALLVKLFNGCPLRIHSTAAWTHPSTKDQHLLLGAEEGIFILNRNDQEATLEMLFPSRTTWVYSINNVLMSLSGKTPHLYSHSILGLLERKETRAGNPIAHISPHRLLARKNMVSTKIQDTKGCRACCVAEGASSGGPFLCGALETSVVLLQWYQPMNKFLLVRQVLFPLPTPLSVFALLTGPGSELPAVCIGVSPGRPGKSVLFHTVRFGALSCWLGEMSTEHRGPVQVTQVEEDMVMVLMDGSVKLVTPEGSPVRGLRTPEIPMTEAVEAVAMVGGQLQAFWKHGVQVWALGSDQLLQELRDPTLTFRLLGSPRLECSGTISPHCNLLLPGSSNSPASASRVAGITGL

Row | Compound | IC50
1 | CNCc1nc(Nc2ccc(-c3cnc4cc(F)ccn34)c3c2C(=O)NC3)ccc1C1CCOC1 (stereo in doubt) [I-723, (R)-4-(7-fluoroimidazo [1,2-a]pyridin-3-yl)-7-((6-((methyl-amino)methyl)-5-(tetrahydrofuran-3-yl)pyridin-2-yl)amino)isoin-dolin-1-one] | < 100 nM
2 | O=C1NCc2c(-c3cnc4cc(F)ccn34)ccc(Nc3ccc([C@H]4CCOC4)c(CN4CC[C@H](O)C4)n3)c21 [I-778, 4-(7-fluoroimidazo[1,2-a]pyridin-3-yl)-7-((6-(((S)-3-hydroxypyrrolidin-1-yl)methyl)-5-((R)-tetrahydrofuran-3-yl)pyridin-2-yl)amino)isoindolin-1-one] | < 100 nM
3 | O=C1NCc2c(-c3cnc4cc(F)ccn34)ccc(Nc3ccc(N4CCC[C@@H](N5CCOCC5)C4)cn3)c21 [I-502, (R)-4-(7-fluoroimidazo [1,2-a]pyridin-3-yl)-7-((5-(3-morpholinopip-eridin-1-yl)pyridin-2-yl)amino)isoin-dolin-1-one] | < 100 nM
4 | CN(Cc1nc(Nc2ccc(-c3cnc4cc(F)ccn34)c3c2C(=O)NC3)ccc1[C@@H]1CCOC1)C1CC1 [I-738] | < 100 nM
5 | O=C1NCc2c(-c3cnc4cc(F)ccn34)ccc(Nc3ccc(N4CCC(O)(CN5CCCC5)CC4)cn3)c21 [I-387] | < 100 nM
6 | O=C1NCc2c(-c3cnc4cc(F)ccn34)ccc(Nc3ccc([C@H]4CCOC4)c(CNCC(F)(F)F)n3)c21 [I-750, (R)-4-(7-fluoroimidazo [1,2-a]pyridin-3-yl)-7-((5-(tetrahydrofuran-3-yl)-6-(((2,2,2-trifluoroethyl)amino)methyl)pyridin-2-yl)amino)isoin-dolin-1-one] | < 100 nM
7 | COC1(c2ccc(Nc3ccc(-c4cnc5cc(F)ccn45)c4c3C(=O)NC4)nc2CN(C)C)CCOCC1 [I-830, 7-((6-((dimethylamino)-methyl)-5-(4-methoxytetra-hydro-2H-pyran-4-yl)pyridin-2-yl)amino)-4-(7-fluoroimidazo [1,2-a]pyridin-3-yl)isoindolin-1-one] | < 100 nM
8 | CN(C)Cc1nc(Nc2ccc(-c3cnc4cc(F)ccn34)c3c2C(=O)NC3)ccc1N1CCO[C@@H](C(C)(C)O)C1 [I-775, (R)-7-((6-((dimethylamino)-methyl)-5-(2-(2-hydroxypropan-2-yl)morpho-lino)pyridin-2-yl)amino)-4-(7-fluoroimidazo [1,2-a]pyridin-3-yl)isoindolin-1-one] | < 100 nM
9 | COc1ccn2c(-c3ccc(Nc4ccc(N5CCC(O)CC5)cn4)c4c3CNC4=O)cnc2c1 [I-164, 7-[[5-(4-hydroxy-1-piperidyl)-2-pyridyl]amino]-4-(7-methoxylmidazo[1,2-a]pyridin-3-yl)isoindolin-1-one] | < 100 nM
10 | O=C1NCc2c(-c3cnc4cc(F)ccn34)ccc(Nc3ccc(N4CCO[C@@H](C5(O)CC5)C4)cn3)c21 (single isomer, unassigned) [I-663] | < 100 nM
11 | O=C1NCc2c(-c3cnc4cccnn34)ccc(Nc3ccc(N4CCC(O)CC4)cn3)c21 [I-162, 7-[[5-(4-hydroxy-1-piperidyl)-2-pyridyl]amino]-4-imidazo[1,2-b]pyridazin-3-yl-isoindolin-1-one] | < 100 nM
12 | Cn1ccc2c(-c3ncc(Nc4ccc(N5CC6CCC(C5)N6)cn4)c4c3CNC4=O)ccnc21 [I-262, 7-((5-(3,8-diazabicyclo [3.2.1]octan-3-yl)pyridin-2-yl)amino)-4-(1-methyl-1H-pyrrolo[2,3-b]pyridin-4-yl)-2,3-dihydro-1H-pyrrolo[3,4-c]pyridin-1-Fone] | < 100 nM
13 | CN(C)C(C)(C)C1CN(c2ccc(Nc3ccc(-c4cnc5cc(F)ccn45)c4c3C(=O)NC4)nc2)CCO1 (stereo not drawn) [I-564, 7-((5-(2-(2-(dimethylami-no)propan-2-yl)morpholino)pyridin-2-yl)amino)-4-(7-fluoroimidazo [1,2-a]pyridin-3-yl)isoindolin-1-one] | < 100 nM
14 | C[C@@H]1COc2c(-c3ccc(Nc4ccc(N5CCN(C)CC5)cn4)c4c3CNC4=O)cnn2C1 [I-261, (S)-4-(6-methyl-6,7-dihydro-5H-pyrazolo[5,1-b][l,3]oxazin-3-yl)-7-((5-(4-methylpiperazin-1-yl)pyridin-2-yl)amino)isoin-dolin-1-one] | < 100 nM
15 | COC[C@@H]1CN(c2ccc(Nc3ccc(-c4cnc5cc(F)ccn45)c4c3C(=O)NC4)nc2)CCO1 [I-442, (S)-4-(7-fluoroimidazo [1,2-a]pyridin-3-yl)-7-((5-(2-(methoxymeth-yl)morpholino)pyridin-2-yl)amino)isoin-dolin-1-one] | < 100 nM
16 | 4-(7- fluoroimidazo [1,2-a]pyridin- 3-yl)-7-[[5-(4- morpholino-1- piperidyl)-2- pyridyl]amino] isoindolin-1- one [I-488] | < 100 nM
17 | NCc1nc(Nc2ccc(-c3cnc4cc(F)ccn34)c3c2C(=O)NC3)ccc1[C@@H]1CCOC1 [I-702, (S)-7-((6-(aminomethyl)-5-(tetrahydrofuran-3-yl)pyridin-2-yl)amino)-4-(7-fluoroimidazo [1,2-a]pyridin-3-yl)isoindolin-1-one] | < 100 nM

The remaining lines, values ahead:

Row | IC50 | Compound
18 | 100 to 1000 nM | CN1CCN(c2ccc(Nc3cnc(-c4c[nH]c5ccncc45)c4c3C(=O)NC4)nc2)CC1 [I-13, 7-[[5-(4-methylpiperazin-1-yl)-2-pyridyl]amino]-4-(1H-pyrrolo[3,2-c]pyridin-3-yl)-2,3-dihydropyrrolo [3,4-c]pyridin-1-one]
19 | < 100 nM | CN1CCN(c2ccc(Nc3cnc(-c4ccnc5c4ccn5C)c4c3C(=O)NC4)nc2)CC1 [I-18, 7-[[5-(4-methylpiperazin-1-yl)-2-pyridyl]amino]-4-(1-methylpyrrolo [2,3-b]pyridin-4-yl)-2,3-dihydropyrrolo [3,4-c]pyridin-1-one]
20 | > 1000 nM | Cc1ccc2c(-c3ncc(Nc4ccc(N5CCN(C)CC5)cn4)c4c3CNC4=O)c(C)[nH]c2n1 [I-17, 4-(2,6-dimethyl-1H-pyrrolo[2,3-b]pyridin-3-yl)-7-[[5-(4-methylpiperazin-1-yl)-2-pyridyl]amino]-2,3-dihydropyrrolo [3,4-c]pyridin-1-one]
21 | < 100 nM | CNCc1nc(Nc2cnc(-c3ccnc4c3ccn4C)c3c2C(=O)NC3)ccc1[C@@H]1CCOC1 (single isomer, unassigned) [I-813]
22 | < 100 nM | CN(C)Cc1nc(Nc2ccc(-c3cnc4cnccn34)c3c2C(=O)NC3)ccc1[C@@H]1CCOC1 [I-714, (S)-7-((6-((dimethylamino)-methyl)-5-(tetrahydrofuran-3-yl)pyridin-2-yl)amino)-4-(imidazo[1,2-a]pyrazin-3-yl)isoindolin-1-one]
23 | < 100 nM | Cn1ccc2c(-c3ccc(Nc4ccc(N5CCOCC5)cn4)c4c3CNC4=O)ccnc21 [I-110, 4-(1-methylpyrrolo [2,3-b]pyridin-4-yl)-7-[(5-morpholino-2-pyridyl)amino] isoindolin-1-one]
24 | > 1000 nM | CC(C)(O)[C@H]1CN(c2ccc(Nc3cnc(-c4cnc5ccccn45)c4c3C(=O)NC4)nc2)CCO1 [I-470, 7-[[5-[(2R)-2-(1-hydroxy-1-methyl-ethyl)morpholin-4-yl]-2-pyridyl]amino]-4-imidazo[1,2-a]pyridin-3-yl-2,3-dihydropyrrolo [3,4-c]pyridin-1-one]
25 | > 1000 nM | CN1CC(c2cccc(Nc3cnc(-c4ccnc5c4ccn5C)c4c3C(=O)NC4)n2)C1 [I-432, 4-(1-methyl-1H-pyrrolo[2,3-b]pyridin-4-yl)-7-((6-(1-methylazetidin-3-yl)pyridin-2-yl)amino)-2,3-dihydro-1H-pyrrolo[3,4-c]pyridin-1-one]
26 | < 100 nM | COCC1CN(c2ccc(Nc3ccc(-c4cnc5cnccn45)c4c3C(=O)NC4)nc2)CCO1 (stereo in doubt) [I-334, (R)-4-(imidazo[1,2-a]pyrazin-3-yl)-7-((5-(2-(methoxymeth-yl)morpholino)-pyridin-2-yl)amino)isoin-dolin-1-one]
27 | 100 to 1000 nM | CN1CC[C@]12CCN(c1cccc(Nc3cnc(-c4ccnc5c4ccn5C)c4c3C(=O)NC4)n1)C2 [I-615, (R)-7-((6-(1-methyl-1.6-diazaspiro[3,4]octan-6-yl)pyridin-2-yl)amino)-4-(1-methyl-1H-pyrrolo[2,3-b]pyridin-4-yl)-2,3-dihydro-1H-pyrrolo[3,4-c]pyridin-1-one]
28 | < 100 nM | CN1CCN(c2ccc(Nc3cnc(-c4cnc5ccccn45)c4c3C(=O)NC4)nc2)CC1 [I-56, 4-(Imidazo[1,2-a]pyridin-3-yl)-7-((5-(4-methylpiperazin-1-yl)pyridin-2-yl)amino)-2,3-dihydro-1H-pyrrolo[3,4-c]pyridin-1-one]
29 | < 100 nM | CN(C)Cc1nc(Nc2ccc(-c3cnc4cc(F)ccn34)c3c2C(=O)NC3)ccc1N1CCN(C)C(=O)C1 [I-795, 7-((6-((dimethylamino)-methyl)-5-(4-methyl-3-oxopiperazin-1-yl)pyridin-2-yl)amino)-4-(7-fluoroimidazo [1,2-a]pyridin-3-yl)isoindolin-1-one]
30 | < 100 nM | Cn1ccc2c(-c3ncc(Nc4ccc(N5CCC(O)(CN6CCOCC6)CC5)cn4)c4c3CNC4=O)ccnc21 [I-343, 7-((5-(4-hydroxy-4-(morpholinomethyl)piperidin-1-yl)pyridin-2-yl)amino)-4-(1-methyl-1H-pyrrolo[2,3-b]pyridin-4-yl)-2,3-dihydro-1H-pyrrolo[3,4-c]pyridin-1-one]
31 | 100 to 1000 nM | Cc1cc(Nc2cnc(-c3ccnc4c3ccn4C)c3c2C(=O)NC3)nc(N2CC[C@@H]3CNC[C@@H]32)c1 [I-642, 7-((6-((3aR,6aR)-hcxahydropyrr-olo[3,4-b]pyrrol-1(2H)-yl)-4-methylpyridin-2-yl)amino)-4-(1-methyl-1H-pyrrolo[2,3-b]pyridin-4-yl)-2,3-dihydro-1H-pyrrolo[3,4-c]pyridin-1-one]
32 | < 100 nM | CN(C)Cc1nc(Nc2ccc(-c3cnc4cc(F)ccn34)c3c2C(=O)NC3)ccc1[C@H]1CCCOC1 [I-550]
33 | > 1000 nM | Cc1ccc(Nc2cnc(-c3ccnc4c3ccn4C)c3c2C(=O)NC3)nc1N(C)C1CNC1 [I-667, 7-((6-(azetidin-3-yl-(methyl)amino)-5-methylpyridin-2-yl)amino)-4-(1-methyl-1H-pyrrolo[2.3-b]pyridin-4-yl)-2,3-dihydro-1H-pyrrolo[3,4-c]pyridin-1-one]
